Test results taken from patent US8598223B2, “Crystalline forms of 4, 4′-[4-fluoro-7-({4-[4-(3-fluoro-2-methylphenyl) butoxy] phenyl} ethynyl)-2-methyl-1H-indole-1,3-diyl] dibutanoic acid, 4,4′-[2-methyl-7-({4-[4-(pentafluorophenyl) butoxy] phenyl} ethynyl)-1H-indole-1, 3-diyl] dibutanoic acid, and 4,4′-[4-fluoro-2-methyl-7-({4-[4-(2, 3, 4, …” (Ono Pharmaceutical Co., Ltd., priority 2010, dated 2013).
Read-outs that look alike come from different tables or passages of the source.

How the values were obtained:
[1] = Thermodynamical stability test by differential scanning calorimetry (DSC); assay type: physicochemical
Method: The thermodynamical stability of each crystalline form of compound I, compound II, and compound III was analyzed by differential scanning calorimetry (DSC). As a result, it was apparent that the crystalline forms of the present invention are ones which have improved thermodynamical stability.

[2] = Photostability test (D65 lamp); assay type: physicochemical; settings: not less than 1.2 million lux hours and 200 W·h/m^2, 25° C.±2° C., visual check
Method: Each crystalline form of compound I, compound II, and compound III were weighed about 5 mg, and were exposed to light from D65 lamp providing an overall illumination of not less than 1.2 million lux hours and an integrated near ultraviolet energy of not less than 200 W·h/m^2 under 25° C.±2° C.

[3] = test system: LTD4-induced bronchoconstriction in guinea pigs; assay: LTD4-induced bronchoconstriction in guinea pigs (Konzett-Rossler method); assay type: in vivo, guinea pig; settings: oral, 1 mg/kg
Method: Guinea pigs were anesthetized by injection of pentobarbital sodium (75 mg/kg, i.p.), and a polyethylene cannula was inserted into the trachea which had been incised. For the purpose of administration of LTD4, a catheter was inserted into the jugular vein of the animal. One side of the cannula inserted into the trachea was connected with a volume-controlled respirator to perform artificial respiration at a ventilation volume of 5 mL and at a ventilation rate of 70 times/min. LTD4 was administrated intravenously to induce the bronchoconstriction, and the airway resistance was measured using the Konzett-Rossler method. The bronchoconstriction response was measured for 10 minutes after LTD4-challenge, and the ratio of bronchoconstriction response was determined and represented as a percentage of the maximal increase in insufflation pressure achieved by clamping off the trachea. In this connection, the crystalline forms of the present invention were orally administered 1, 2, 4, 8, 12, 18, 24, 36 and 48 hours prior to challenge by LTD4.

[4] = administered 2 hours prior to LTD4 challenge
[5] = administered 24 hours prior to LTD4 challenge

Compound	thermodynamical stability of the crystalline form [1]	photostability of the crystalline form [2]	bronchoconstriction inhibition ratio [3, 4] [%]	bronchoconstriction inhibition ratio [3, 5] [%]	also measured
Cc1c(CCCC(=O)O)c2c(F)ccc(C#Cc3ccc(OCCCCc4c(F)cc(F)c(F)c4F)cc3)c2n1CCCC(=O)O [Example 16, 4,4′-[4-fluoro-2-methyl-7-({4-[4-(2,3,4,6-tetrafluorophenyl)butoxy]phenyl}ethynyl)-1H-indole-1,3-diyl]dibutanoic acid]	thermodynamically stable	photostable	–	–	–
Cc1c(F)cccc1CCCCOc1ccc(C#Cc2ccc(F)c3c(CCCC(=O)O)c(C)n(CCCC(=O)O)c23)cc1 [type B crystal of compound I, 4,4′-[4-fluoro-7-({4-[4-(3-fluoro-2-methylphenyl)butoxy]phenyl}ethynyl)-2-methyl-1H-indole-1,3-diyl]dibutanoic acid]	–	–	–	–	fusion enthalpy [1]: 57.2 J/g
Cc1c(F)cccc1CCCCOc1ccc(C#Cc2ccc(F)c3c(CCCC(=O)O)c(C)n(CCCC(=O)O)c23)cc1 [type A crystal of compound I, 4,4′-[4-fluoro-7-({4-[4-(3-fluoro-2-methylphenyl)butoxy]phenyl}ethynyl)-2-methyl-1H-indole-1,3-diyl]dibutanoic acid]	–	–	–	–	fusion enthalpy [1]: 96.3 J/g
Cc1c(CCCC(=O)O)c2c(F)ccc(/C=C/c3ccc(OCCCCc4c(F)cc(F)c(F)c4F)cc3)c2n1CCCC(=O)O [Comparative Example 6, 4,4′-{4-fluoro-2-methyl-7-[(E)-2-{4-[4-(2,3,4,6-tetrafluorophenyl)butoxy]phenyl}vinyl]-1H-indole-1,3-diyl}dibutanoic acid]	–	–	53.2	16.1	–
Cc1c(CCCC(=O)O)c2cccc(/C=C/c3ccc(OCCCCc4c(F)c(F)c(F)c(F)c4F)cc3)c2n1CCCC(=O)O [Comparative Example 5, 4,4′-{2-methyl-7-[(E)-2-{4-[4-(pentafluorophenyl)butoxy]phenyl}vinyl]-1H-indole-1,3-diyl}dibutanoic acid]	–	–	98.6	74.1	–
Cc1c(F)cccc1CCCCOc1ccc(/C=C/c2ccc(F)c3c(CCCC(=O)O)c(C)n(CCCC(=O)O)c23)cc1 [Comparative Example 4, 4,4′-{4-fluoro-7-[(E)-2-{4-[4-(3-fluoro-2-methylphenyl)butoxy]phenyl}vinyl]-2-methyl-1H-indole-1,3-diyl}dibutanoic acid]	–	–	97.5	43.2	–
Cc1c(F)cccc1CCCCOc1ccc(C#Cc2ccc(F)c3c(CCCC(=O)O)c(C)n(CCCC(=O)O)c23)cc1 [Example 12, 4,4′-[4-fluoro-7-({4-[4-(3-fluoro-2-methylphenyl)butoxy]phenyl}ethynyl)-2-methyl-1H-indole-1,3-diyl]dibutanoic acid]	the most thermodynamically stable crystalline form	photostable	–	–	fusion enthalpy ([1]; listed as type C crystal of compound I): 105.6 J/g
Cc1c(CCCC(=O)O)c2cccc(C#Cc3ccc(OCCCCc4c(F)c(F)c(F)c(F)c4F)cc3)c2n1CCCC(=O)O [type A crystal of compound II, 4,4′-[2-methyl-7-({4-[4-(pentafluorophenyl)butoxy]phenyl}ethynyl)-1H-indole-1,3-diyl]dibutanoic acid]	–	–	–	–	degree of change in color to yellow after test as compared to before test ([2]; type A versus type B crystal): bigger
Cc1c(CCCC(=O)O)c2cccc(C#Cc3ccc(OCCCCc4c(F)c(F)c(F)c(F)c4F)cc3)c2n1CCCC(=O)O [Example 14, 4,4′-[2-methyl-7-({4-[4-(pentafluorophenyl)butoxy]phenyl}ethynyl)-1H-indole-1,3-diyl]dibutanoic acid]	thermodynamically stable	more photostable than type A crystal	98.5	99.2	–
